The test system of the assay is M. tuberculosis H37Rv. Briefly: In vivo screening of antitubercular activity in infected mice model of experimental tuberculosis. Also noted: species or system Female swiss mice. The conditions noted are these: 25 mg/kg body weight for 10 days after infection.

Consider `C[C@@H]1CN(c2c(F)c(N)c3c(=O)c(C(=O)O)cn(C4CC4)c3c2F)C[C@H](C)N1` [sparfloxicin], for which the “general health and body weight of infected mice” value is on record as “healthy, gained weight”; the “mortality of infected mice” value is “none of the mice died”.

For the origin of these results see US7442393B2, “Herbal extracts of Salicornia species, process of preparation thereof, use thereof against tuberculosis” (priority 2003, dated 2008).
